Among the data in patent publication US7598241B2, “Carboxamide derivatives and their use as factor Xa inhibitors” (Merck Patent GmbH, priority 2003, dated 2009) are IC50 values, retold here.

One test addresses factor Xa (Homo sapiens, UniProt P00742). Kind of test: Factor Xa inhibition (FXa-IC50). It is filed as biochemical. From the text: The inhibition of factor Xa by the compounds according to the invention and the measurement of the anticoagulant and antithrombotic activity can be determined by conventional in-vitro or in-vivo methods. A suitable method is described, for example, by J. Hauptmann et al. in Thrombosis and Haemostasis 1990, 63, 220-223.
The inhibition of factor Xa can be measured, for example, by the method of T. Hara et al. in Thromb. Haemostas. 1994, 71, 314-319.

Another test deals with TF/FVIIa (Homo sapiens, UniProt P08709). Put plainly: TF/FVIIa inhibition (TF/FVIIa-IC50). It is filed as biochemical. From the text:
Coagulation factor VIIa initiates the extrinsic part of the coagulation cascade after binding to tissue factor and contributes to the activation of factor X to give factor Xa. Inhibition of factor VIIa thus prevents the formation of factor Xa and thus subsequent thrombin formation. • The inhibition of factor VIIa by the compounds according to the invention and the measurement of the anticoagulant and antithrombotic activity can be determined by conventional in-vitro or in-vivo methods. A conventional method for the measurement of the inhibition of factor VIIa is described, for example, by H. F. Ronning et al. in Thrombosis Research 1996, 84, 73-81.

TF/FVIIa, sequence (P08709 213-466 limits assumed): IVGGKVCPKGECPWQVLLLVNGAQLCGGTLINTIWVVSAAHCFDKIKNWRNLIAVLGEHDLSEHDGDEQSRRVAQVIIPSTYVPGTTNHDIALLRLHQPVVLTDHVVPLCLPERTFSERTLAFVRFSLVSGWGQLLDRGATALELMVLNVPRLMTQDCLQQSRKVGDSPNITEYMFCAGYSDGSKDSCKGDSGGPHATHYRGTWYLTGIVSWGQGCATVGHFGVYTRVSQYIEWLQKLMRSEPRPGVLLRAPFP
TF/FVIIa, sequence (P08709 61-212 partner limits assumed): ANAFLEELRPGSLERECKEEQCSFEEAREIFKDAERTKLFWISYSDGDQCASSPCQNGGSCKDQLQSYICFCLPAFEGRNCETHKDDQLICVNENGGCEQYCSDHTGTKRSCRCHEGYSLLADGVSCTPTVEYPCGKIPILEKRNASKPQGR
TF/FVIIa, sequence (P13726 33-295 partner): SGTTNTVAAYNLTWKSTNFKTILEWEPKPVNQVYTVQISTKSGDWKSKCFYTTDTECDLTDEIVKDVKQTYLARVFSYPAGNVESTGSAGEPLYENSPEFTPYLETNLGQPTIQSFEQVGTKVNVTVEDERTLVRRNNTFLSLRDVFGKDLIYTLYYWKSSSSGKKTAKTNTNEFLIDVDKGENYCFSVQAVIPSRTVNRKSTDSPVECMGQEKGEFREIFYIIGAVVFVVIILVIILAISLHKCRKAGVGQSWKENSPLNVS
factor Xa, sequence (P00742 235-488 limits assumed): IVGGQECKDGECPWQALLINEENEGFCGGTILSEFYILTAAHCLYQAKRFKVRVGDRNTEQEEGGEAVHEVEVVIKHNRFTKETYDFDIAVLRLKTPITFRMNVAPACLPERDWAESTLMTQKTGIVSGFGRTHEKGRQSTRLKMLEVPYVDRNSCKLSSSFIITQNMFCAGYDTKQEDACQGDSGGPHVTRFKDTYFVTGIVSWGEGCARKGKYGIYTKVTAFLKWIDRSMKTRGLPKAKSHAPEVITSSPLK
factor Xa, sequence (P00742 41-179 partner limits assumed): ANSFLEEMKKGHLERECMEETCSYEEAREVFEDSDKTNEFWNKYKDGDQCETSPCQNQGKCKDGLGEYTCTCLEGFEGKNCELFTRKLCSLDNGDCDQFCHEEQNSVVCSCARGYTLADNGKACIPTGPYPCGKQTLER

Regarding `CS(=O)(=O)CCC(NC(=O)Nc1ccc(Cl)cc1)C(=O)Nc1ccc(-n2ccncc2=O)cc1` (stereo not shown) [Compound 1B, 2-[3-(4-chlorophenyl)ureido]-N-[4-(2-oxo-2H-pyrazin-1-yl)phenyl]-4-methanesulfonylbutyramide], the values for the IC50 against factor Xa and on TF/FVIIa were 42 nM and 43 nM, respectively. For `CS(=O)(=O)CCC(NC(=O)Nc1ccc(Cl)cc1)C(=O)Nc1ccc(-n2ccccc2=O)cc1` (stereo not shown) [Compound 1A, 2-[3-(4-chlorophenyl)ureido]-N-[4-(2-oxo-2H-pyridin-1-yl)phenyl]-4-methanesulfonylbutyramide] the same measures were 28 nM and 28 nM. `COP(=O)(C[C@@H](NC(=O)Nc1ccc(Cl)cc1)C(=O)Nc1ccc(N2CCOCC2=O)cc1)OC` [Compound 1D, (S)-2-[3-(4-chlorophenyl)ureido]-N-[4-(3-oxomorpholin-4-yl)phenyl]-3-(dimethoxyphosphoryl)propionamide] had a 50% inhibitory concentration (IC50) against factor Xa of 85 nM. On to `CS(=O)(=O)C[C@H](NC(=O)Nc1ccc(Cl)cc1)C(=O)Nc1ccc(-n2ccccc2=O)cc1` [Compound 2A, (R)-2-[3-(4-chlorophenyl)ureido]-N-[4-(2-oxo-2H-pyridin-1-yl)phenyl]-3-methanesulfonylpropionamide], for which the IC50 on factor Xa was 6.4 nM; against TF/FVIIa it was 12 nM.

Usually IC50 stands for the midpoint of a concentration-inhibition curve.
